From patent US20240109917A1 (ACTELION PHARMACEUTICALS LTD, priority 2020, published 2024)
Read-outs that look alike come from different tables or passages of the source.

Molecular target: PDGFRβ (Rattus norvegicus (Rat), UniProt Q05030)
Test: PDGFRβ Cellular Assay (PDGFRb P-Y751 HTRF in A10 cells stimulated with PDGF-BB)
Format: cell-based
How it was run: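 Phospho-Y751 PDGFRβ was measured by HTRF in lysates of A10 rat cells. Cells received compound for 3 hours before PDGF-BB stimulation (100 ng/mL working stock).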

PDGFRβ, sequence (Q05030 32-1097): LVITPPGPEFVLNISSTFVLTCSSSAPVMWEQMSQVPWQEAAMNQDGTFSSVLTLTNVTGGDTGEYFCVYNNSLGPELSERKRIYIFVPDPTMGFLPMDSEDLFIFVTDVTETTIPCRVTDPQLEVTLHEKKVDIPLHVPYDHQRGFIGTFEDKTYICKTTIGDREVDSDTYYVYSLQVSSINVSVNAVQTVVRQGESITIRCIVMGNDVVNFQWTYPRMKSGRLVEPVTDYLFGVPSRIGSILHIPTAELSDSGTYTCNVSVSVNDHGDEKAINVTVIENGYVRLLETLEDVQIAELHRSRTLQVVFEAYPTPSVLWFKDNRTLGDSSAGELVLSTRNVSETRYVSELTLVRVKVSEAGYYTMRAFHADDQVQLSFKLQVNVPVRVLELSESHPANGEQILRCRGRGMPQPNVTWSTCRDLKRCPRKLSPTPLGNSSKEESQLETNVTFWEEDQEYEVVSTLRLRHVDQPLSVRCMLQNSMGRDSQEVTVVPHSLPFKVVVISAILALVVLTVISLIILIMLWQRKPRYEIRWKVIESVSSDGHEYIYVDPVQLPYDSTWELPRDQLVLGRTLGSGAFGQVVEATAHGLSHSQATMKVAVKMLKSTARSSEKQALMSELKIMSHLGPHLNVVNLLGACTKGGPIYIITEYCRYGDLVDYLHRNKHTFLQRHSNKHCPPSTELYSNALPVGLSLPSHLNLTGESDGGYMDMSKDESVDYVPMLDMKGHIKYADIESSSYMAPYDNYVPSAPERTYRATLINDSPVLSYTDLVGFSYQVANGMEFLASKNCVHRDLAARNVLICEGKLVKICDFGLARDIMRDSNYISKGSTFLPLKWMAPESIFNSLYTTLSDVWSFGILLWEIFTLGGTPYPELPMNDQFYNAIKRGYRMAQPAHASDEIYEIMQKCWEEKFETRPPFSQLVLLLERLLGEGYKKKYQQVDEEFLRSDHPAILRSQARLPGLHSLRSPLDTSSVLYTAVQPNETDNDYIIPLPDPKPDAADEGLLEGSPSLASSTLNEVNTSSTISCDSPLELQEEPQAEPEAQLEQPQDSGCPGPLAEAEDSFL

Row | Structure (SMILES) | IC50 (read-out: PDGFR Cellular IC50) [nM] | IC50 (PDGFR Cellular IC50) [nM]
1 | Cc1ncc(C(=O)NCCN2CCCC2)cc1NC(=O)c1cnn2cc(-c3cnn(CCC(O)CO)c3)sc12 (stereo not shown) [Example 222, 2-(1-(3,4-Dihydroxybutyl)-1H-pyrazol-4-yl)-N-(2-methyl-5-((2-(pyrrolidin-1-yl)ethyl)carbamoyl)pyridin-3-yl)pyrazolo[5,1-b]thiazole-7-carboxamide] | 989 | 
2 | Cc1cc(C(=O)NCCN2CCCC(O)C2)sc1NC(=O)c1cnn2cc(-c3cnn(C)c3)sc12 (stereo not shown) [Example 200, N-(5-((2-(3-hydroxypiperidin-1-yl)ethyl)carbamoyl)-3-methylthiophen-2-yl)-2-(1-methyl-1H-pyrazol-4-yl)pyrazolo[5,1-b]thiazole-7-carboxamide] | > 3000 | 
3 | Cc1ncc(NC(=O)OCC(C)N2CCCC2)cc1NC(=O)c1cnn2cc(-c3cnn(C)c3)sc12 (stereo not shown) [Example 248, 2-(pyrrolidin-1-yl)propyl (6-methyl-5-(2-(1-methyl-1H-pyrazol-4-yl)pyrazolo[5,1-b]thiazole-7-carboxamido)pyridin-3-yl)carbamate] | 31.3 | 
4 | COc1ncccc1-c1cn2ncc(C(=O)Nc3cc(NC(=O)OC[C@@H]4CCCN4C)cnc3C)c2s1 [Example 253, (S)-(1-methylpyrrolidin-2-yl)methyl (5-(2-(2-methoxypyridin-3-yl)pyrazolo[5,1-b]thiazole-7-carboxamido)-6-methylpyridin-3-yl)carbamate] | 4.4 | 
5 | Cc1ncc(NC(=O)OCCN2CCCC2)cc1NC(=O)c1cnn2cc(-c3cnn(C)c3)sc12 [Example 246, 2-(pyrrolidin-1-yl)ethyl (6-methyl-5-(2-(1-methyl-1H-pyrazol-4-yl)pyrazolo[5,1-b]thiazole-7-carboxamido)pyridin-3-yl)carbamate] | 113 | 
6 | Cn1cc(-c2cn3ncc(C(=O)Nc4cc(C(=O)NCCN5CCCC5(C)C)ccc4F)c3s2)cn1 [Example 207, N-(5-((2-(2,2-dimethylpyrrolidin-1-yl)ethyl)carbamoyl)-2-fluorophenyl)-2-(1-methyl-1H-pyrazol-4-yl)pyrazolo[5,1-b]thiazole-7-carboxamide] | 3.3 | 
7 | Cc1cc(C(=O)NCCN(C)C2CCOCC2)sc1NC(=O)c1cnn2cc(-c3cnn(C)c3)sc12 [Example 192, 2-(1-methyl-1H-pyrazol-4-yl)-N-(3-methyl-5-((2-(methyl(tetrahydro-2H-pyran-4-yl)amino)ethyl)carbamoyl)thiophen-2-yl)pyrazolo[5,1-b]thiazole-7-carboxamide] | > 3000 | 
8 | Cc1ncc(C(=O)NCCN(CCO)CC2CCCCC2)cc1NC(=O)c1cnn2cc(-c3cnn(C)c3)sc12 [Example 235, N-(5-((2-((cyclohexylmethyl)(2-hydroxyethyl)amino)ethyl)carbamoyl)-2-methylpyridin-3-yl)-2-(1-methyl-1H-pyrazol-4-yl)pyrazolo[5,1-b]thiazole-7-carboxamide] | 9.5 | 
9 | Cc1ncc(NC(=O)CN2CCC(F)(F)CC2)cc1NC(=O)c1cnn2cc(-c3cnn(C)c3)sc12 [Example 14, N-(5-(2-(4,4-difluoropiperidin-1-yl)acetamido)-2-methylpyridin-3-yl)-2-(1-methyl-1H-pyrazol-4-yl)pyrazolo[5,1-b]thiazole-7-carboxamide] | 4.4 | 
10 | Cc1cc(C(=O)NCCN2CCOCC23CC3)sc1NC(=O)c1cnn2cc(-c3cnn(C)c3)sc12 [Example 197, N-(5-((2-(7-oxa-4-azaspiro[2.5]octan-4-yl)ethyl)carbamoyl)-3-methylthiophen-2-yl)-2-(1-methyl-1H-pyrazol-4-yl)pyrazolo[5,1-b]thiazole-7-carboxamide] | 613 | 
11 | CCc1cc(C(=O)NCCN2CCCC23CCC3)sc1NC(=O)c1cnn2cc(-c3cnn(C)c3)sc12 [Example 205, N-(5-((2-(5-azaspiro[3.4]octan-5-yl)ethyl)carbamoyl)-3-ethylthiophen-2-yl)-2-(1-methyl-1H-pyrazol-4-yl)pyrazolo[5,1-b]thiazole-7-carboxamide] | 562 | 
12 | Cc1cc(C(=O)NCCN2CCC3(CCC3)CC2)sc1NC(=O)c1cnn2cc(-c3cnn(C)c3)sc12 [Example 203, N-(5-((2-(7-azaspiro[3.5]nonan-7-yl)ethyl)carbamoyl)-3-methylthiophen-2-yl)-2-(1-methyl-1H-pyrazol-4-yl)pyrazolo[5,1-b]thiazole-7-carboxamide] | 449 | 
13 | COc1ncccc1-c1cn2ncc(C(=O)Nc3cc(C(=O)NCCN4CCCC4C)cnc3C)c2s1 (stereo not shown) [Example 228, 2-(2-Methoxypyridin-3-yl)-N-(2-methyl-5-((2-(2-methylpyrrolidin-1-yl)ethyl)carbamoyl)pyridin-3-yl)pyrazolo[5,1-b]thiazole-7-carboxamide] | 5.6 | 
14 | Cc1cc(C(=O)NCCN(C)C2CCCC2)sc1NC(=O)c1cnn2cc(-c3cnn(C)c3)sc12 [Example 190, N-(5-((2-(cyclopentyl(methyl)amino)ethyl)carbamoyl)-3-methylthiophen-2-yl)-2-(1-methyl-1H-pyrazol-4-yl)pyrazolo[5,1-b]thiazole-7-carboxamide] |  | 147
15 | Cc1ncc(C(=O)NCCN2CCCC2)cc1NC(=O)c1cnn2cc(-c3cnn(C)c3)sc12 [Example 219, 2-(1-Methyl-1H-pyrazol-4-yl)-N-(2-methyl-5-((2-(pyrrolidin-1-yl)ethyl)carbamoyl)pyridin-3-yl)pyrazolo[5,1-b]thiazole-7-carboxamide] | 123 | 
16 | Cc1ncc(C(=O)NCCN2CCCC2(C)C)cc1NC(=O)c1cnn2cc(-n3ncc4cccnc43)sc12 [Example 217, N-(5-((2-(2,2-dimethylpyrrolidin-1-yl)ethyl)carbamoyl)-2-methylpyridin-3-yl)-2-(1H-pyrazolo[3,4-b]pyridin-1-yl)pyrazolo[5,1-b]thiazole-7-carboxamide] | 8.9 | 
17 | Cc1cc(C(=O)NCCN2CCC(C)(C)CC2)sc1NC(=O)c1cnn2cc(-c3cnn(C)c3)sc12 [Example 183, N-(5-((2-(4,4-dimethylpiperidin-1-yl)ethyl)carbamoyl)-3-methylthiophen-2-yl)-2-(1-methyl-1H-pyrazol-4-yl)pyrazolo[5,1-b]thiazole-7-carboxamide] | 178 | 
18 | Cc1ncc(C(=O)NCCN2CCCC23CCC3)cc1NC(=O)c1cnn2cc(-c3cn(C)nc3C)sc12 [Example 213, N-(5-((2-(5-azaspiro[3.4]octan-5-yl)ethyl)carbamoyl)-2-methylpyridin-3-yl)-2-(1,3-dimethyl-1H-pyrazol-4-yl)pyrazolo[5,1-b]thiazole-7-carboxamide] | 2.4 | 
19 | Cc1cc(C(=O)NCCCN2CCCC2(C)C)sc1NC(=O)c1cnn2cc(-c3cnn(C)c3)sc12 [Example 201, N-(5-((3-(2,2-dimethylpyrrolidin-1-yl)propyl)carbamoyl)-3-methylthiophen-2-yl)-2-(1-methyl-1H-pyrazol-4-yl)pyrazolo[5,1-b]thiazole-7-carboxamide] | 1440 | 
20 | Cc1ncc(NC(=O)CN(C)C2CCOCC2)cc1NC(=O)c1cnn2cc(-c3cnn(C)c3)sc12 [Example 15, 2-(1-methyl-1H-pyrazol-4-yl)-N-(2-methyl-5-(2-(methyl(tetrahydro-2H-pyran-4-yl)amino)acetamido)pyridin-3-yl)pyrazolo[5,1-b]thiazole-7-carboxamide] | 15.7 | 
21 | Cc1cc(C(=O)NCCN2CCCC2(C)C)sc1NC(=O)c1cnn2cc(-c3cnn(C)n3)sc12 [Example 186, N-(5-((2-(2,2-dimethylpyrrolidin-1-yl)ethyl)carbamoyl)-3-methylthiophen-2-yl)-2-(2-methyl-2H-1,2,3-triazol-4-yl)pyrazolo[5,1-b]thiazole-7-carboxamide] | 593 | 
22 | Cc1ncc(NC(=O)CCN2CCCC2(C)C)cc1NC(=O)c1cnn2cc(-c3ccn(C)n3)sc12 [Example 12, N-(5-(3-(2,2-dimethylpyrrolidin-1-yl)propanamido)-2-methyl-pyridin-3-yl)-2-(1-methyl-1H-pyrazol-3-yl)pyrazolo[5,1-b]thiazole-7-carboxamide] | 7.7 | 
23 | Cc1cc(C(=O)NCCN2CCCC2(C)C)sc1NC(=O)c1cnn2cc(-c3ccncc3)sc12 [Example 187, N-(5-((2-(2,2-dimethylpyrrolidin-1-yl)ethyl)carbamoyl)-3-methylthiophen-2-yl)-2-(pyridin-4-yl)pyrazolo[5,1-b]thiazole-7-carboxamide] | 1020 | 
24 | Cc1ncc(NC(=O)OCC(C)(C)N2CCCC2)cc1NC(=O)c1cnn2cc(-c3cnn(C)c3)sc12 [Example 249, 2-methyl-2-(pyrrolidin-1-yl)propyl (6-methyl-5-(2-(1-methyl-1H-pyrazol-4-yl)pyrazolo[5,1-b]thiazole-7-carboxamido)pyridin-3-yl)carbamate] | 59.8 | 
25 | Cc1ncc(C(=O)NCCN2CC3CCC2C3)cc1NC(=O)c1cnn2cc(-c3cnn(C)c3C)sc12 (stereo not shown) [Example 210, N-(5-((2-(2-azabicyclo[2.2.1]heptan-2-yl)ethyl)carbamoyl)-2-methylpyridin-3-yl)-2-(1,5-dimethyl-1H-pyrazol-4-yl)pyrazolo[5,1-b]thiazole-7-carboxamide] | 89.8 | 
26 | Cc1ncc(C(=O)NC2CN(C(C)(C)C)C2)cc1NC(=O)c1cnn2cc(-c3cnn(C)c3)sc12 [Example 237, N-(5-((1-(tert-butyl)azetidin-3-yl)carbamoyl)-2-methylpyridin-3-yl)-2-(1-methyl-1H-pyrazol-4-yl)pyrazolo[5,1-b]thiazole-7-carboxamide] |  | 619
27 | Cc1ncc(NC(=O)OC2CN(C(C)(C)C)C2)cc1NC(=O)c1cnn2cc(-c3cnn(C)c3)sc12 [Example 252, 1-(tert-butyl)azetidin-3-yl (6-methyl-5-(2-(1-methyl-1H-pyrazol-4-yl)pyrazolo[5,1-b]thiazole-7-carboxamido)pyridin-3-yl)carbamate] | 79.7 | 
28 | Cc1ncc(NC(=O)CCCN2CCC23CCC3)cc1NC(=O)c1cnn2cc(-c3cnn(C)c3)sc12 [Example 215, N-(5-(4-(1-azaspiro[3.3]heptan-1-yl)butanamido)-2-methylpyridin-3-yl)-2-(1-methyl-1H-pyrazol-4-yl)pyrazolo[5,1-b]thiazole-7-carboxamide] |  | 80.1
